Results reported in paper PMC10307035, “Antiviral activity of singlet oxygen-photogenerating perylene compounds against SARS-CoV-2: Interaction with the viral envelope and photodynamic virion inactivation” (Virus Research, 2023).

Key:
[1] = ROS generation rate / quantum yield, DPBF bleaching in methanol; assay type: physicochemical; settings: for φROS (ROS generation quantum yield): in methanol, DPBF trap, 450–470 nm illumination, riboflavin as reference
Excerpt: The ROS generation rate was estimated using the spectrophotometric method, based on the absorption changes of 1,3-diphenylisobenzofuran (DPBF, Sigma Aldrich, Germany) in methanol solution. Irreversible oxidation of DPBF by singlet oxygen results in peroxide formation, and DPBF bleaching. When light of 400–450 nm was used as actinic, DPBF bleaching occurred without any photosensitizer (PS) in solution. Therefore, to study photosensitized ROS generation, we used a white MCWHLP1 LED (Thorlabs, USA) with filters to limit the radiation to the 450–470 nm range (5.5 mW/cm^2).
Spectrophotometric measurements were performed in a Qpod 2e (Quantum Northwest, USA) thermostated cuvette holder at 25 °C with magnetic stirring (500 rpm). Absorption spectra were recorded using a MayaPro spectrophotometer (Ocean Optics, USA) and a stabilized white light source with a SLS201L tungsten lamp (Thorlabs, USA). Illumination was uniform over the entire volume of the cuvette, to prevent artifacts associated with the diffusion of non-reacted components into the illuminated volume of the cuvette. In this case, the rate of irreversible bleaching of DPBF (412 nm) was the same under both continuous and pulsed irradiation with equal total irradiation time. Illumination was performed in a pulsed mode (Fig. S5A), with 1 s of illumination followed by 5 s of dark adaptation, during which the absorption spectrum of the PS-DPBF solution was recorded. Data processing was performed as previously described ([Gvozdev et al., 2020]).

[2] = tested on: Vero cells; test: Cytotoxicity assay (Cell Counting Kit-8) in Vero cells; assay type: cell-based, African Green Monkey; settings: 10 µM, 48 h
Method: To determine the overall cytotoxicity of the tested compounds, Vero cells were cultured for 24 h in 96-well plates to form a confluent monolayer, and then were treated with the tested compounds at concentrations of 2 and 10 µM. After 48 h of cultivation in the dark at 37 °C under 5% CO2, the cell culture medium was aspirated. The potential cytotoxicity of the tested perylene derivatives was determined based on cell viability using Cell Counting Kit-8 (Dojindo Molecular Technologies, Munich, Germany) according to the manufacturer's instructions. The cell viabilities of compound-treated Vero cells were compared with those of control DMSO-treated cells. We also used the above-described protocol to assess the cytotoxicity of the selected perylene antivirals, at concentrations ranging from 0 to 10 µM, in CaCo-2 and CRFK cells.

[3] = ROS generation measurement with DMA trap in DMSO; assay type: physicochemical; settings: 465–480 nm, 30 mW/cm^2, 10 min
Method: ROS generation was also estimated using 9,10-dimethylanthracene (DMA), another specific fluorescent singlet oxygen trap, which forms nonfluorescent 9,10-dimethylanthracene endoperoxide after ROS-mediated DMA oxidation. Compounds (0, 0.1, 1, and 10 µM) in DMSO were mixed with DMA (0.5 µM), and these solutions were irradiated for 10 min at room temperature (RT) with light-emitting diodes (LED, 465–480 nm) having approximate power density of 30 mW/cm^2 (device description in Fig. S7). DMA fluorescence intensity was measured at ex/em wavelengths of 370/432 nm in the presence or absence of α-tocopherol (3 µg/mL) as an antioxidant. Singlet oxygen generation was accompanied by a decreased fluorescence signal of the DMA probe ([Zeng et al., 2020]).

[4] = Spectrofluorometric analysis of interaction with liposomes; assay type: physicochemical

| SMILES | φROS (ROS generation quantum yield) [1] | cell viability (in words) [2] | further results |
| --- | --- | --- | --- |
| O=c1[nH]c(=O)n([C@@H]2O[C@H](CO)[C@@H](O)[C@@H]2O)cc1C#Cc1ccc2c3cccc4cccc(c5cccc1c52)c43 [Compound 1, 5-(perylen-3-yl)ethynyl-arabino-uridine] | 22.8 ± 0.4% | – | – |
| O=c1[nH]cc(C#Cc2ccc3c4cccc5cccc(c6cccc2c63)c54)c(=O)[nH]1 [Compound 3] | 12.7 ± 1.2% | – | – |
| Cn1cc(C#Cc2ccc3c4cccc5cccc(c6cccc2c63)c54)c(=O)n(C)c1=O [Compound 4] | 22.8 ± 0.4% | moderately decreased cell viability | – |
| CC(C)(C)C(=O)OCn1c(=O)c(C#Cc2ccc3c4cccc5cccc(c6cccc2c63)c54)cn(CC(=O)O)c1=O [Compound 5] | 20.5 ± 0.2% | moderately decreased cell viability | – |
| CC(C)(C)C(=O)OCn1c(=O)c(C#Cc2ccc3c4cccc5cccc(c6cccc2c63)c54)cn(CC(=O)NCCCCO)c1=O [Compound 6] | 18.2 ± 0.2% | – | – |
| CC(C)(C)C(=O)OCn1c(=O)c(C#Cc2ccc3c4cccc5cccc(c6cccc2c63)c54)cn(CC(=O)NC[C@@H](O)C(C)(C)CO)c1=O [Compound 7] | 17.3 ± 0.2% | – | – |
| CC(C)(C)C(=O)OCn1c(=O)c(C#Cc2ccc3c4cccc5cccc(c6cccc2c63)c54)cn(CC(=O)NCCO)c1=O [Compound 9] | 17.3 ± 0.2% | – | – |
| CC(C)(C)C(=O)OCn1c(=O)c(C#Cc2ccc3c4cccc5cccc(c6cccc2c63)c54)cn(CC(=O)NCCCO)c1=O [Compound 10] | 16.5 ± 0.2% | – | – |
| CC(C)(C)C(=O)OCn1c(=O)c(C#Cc2ccc3c4cccc5cccc(c6cccc2c63)c54)cn(CC(=O)NCCCCCO)c1=O [Compound 11] | 17.2 ± 0.4% | – | – |
| CC(C)(C)C(=O)OCn1c(=O)c(C#Cc2ccc3c4cccc5cccc(c6cccc2c63)c54)cn(CC(=O)NCCCCCCO)c1=O [Compound 12] | 18.1 ± 0.4% | moderately decreased cell viability | – |
| CC(=O)Nc1ccc(C#Cc2ccc3c4cccc5cccc(c6cccc2c63)c54)cc1 [Compound 15] | 23.1 ± 0.4% | – | – |
| O=C(c1ccc(-c2ccc3c4cccc5cccc(c6cccc2c63)c54)s1)N(CCO)CCO [Compound 18] | 60.0 ± 2.4% | – | – |
| CCCCNC(=O)c1ccc(-c2ccc3c4cccc5cccc(c6cccc2c63)c54)s1 [Compound 19] | 59.1 ± 1.2% | moderately decreased cell viability | – |
| O=C(O)c1ccc2c3cccc4cccc(c5cccc1c52)c43 [Compound 20] | – | moderately decreased cell viability | ROS generation, DMA trap, under blue light [3]: minimal photodynamic activities; photodynamic activity (DPBF trap, in words) ([1]; methanol, 450–470 nm): minimal; solubility in water (in words) [4]: good solubility in water; penetration into liposomal membranes (in words) ([4]; 10 µM in PBS, EPC/Chol 70/30 mol% liposomes): no fluorescence enhancement |
